According to paper PMC7370187, “Screening of an Epigenetic Drug Library Identifies 4-((hydroxyamino)carbonyl)-N-(2-hydroxyethyl)-N-Phenyl-Benzeneacetamide that Reduces Melanin Synthesis by Inhibiting Tyrosinase Activity Independently of Epigenetic Mechanisms” (International Journal of Molecular Sciences, 2020):
“Also recorded” adds a separate entry of the source.

Tests used:
TYR = test: In vitro TYR catalytic activity, murine and human TYR given together (abstract); format: biochemical; conditions: range over human and murine TYR preparations
Protocol: (§1) To examine the direct effect of a drug on the catalytic activity of TYR, in vitro experiments were undertaken. Lysate of B16F10 cells stimulated with α-MSH for 24 h was used as a murine TYR preparation. Human TYR preparation was the lysate of human embryonic kidney 293 cells constitutively expressing human TYR (HEK293-TYR). […] The TYR activity assay mixture (200 μL) consisted of 100 mM sodium phosphate buffer (pH 6.8), TYR preparation (40 μg protein), a drug at various concentrations, 1.0 mM L-tyrosine, and 42 μΜ L-DOPA. For enzyme kinetic study, the concentrations of L-tyrosine plus L-DOPA were varied while their relative ratio was kept the same as the standard assay condition. […] The reactions were also performed in the absence of a TYR preparation to correct for the effects of non-enzymatic reactions. Enzyme activity was calculated as follows: activity (% control) = (C−D)/(A−B) × 100, where A and B are the absorbance changes of the control group with and without enzyme, respectively, while C and D are the absorbance changes of the test group with and without enzyme, respectively.

[1] = system: B16-F10 murine melanoma cells; test: Screening assay for overall melanin synthesis (OD 400 nm) in α-MSH-stimulated cells; format: cell-based; conditions: 100 nM α-MSH, 72 h
Protocol: For the screening assay, B16-F10 cells were plated in 96-well plates (3 × 10^3 cells per well) and cultured for 24 h. The cells were then treated with a test drug at 1.0 μM for 60 min, and subsequently stimulated with 0.1 μM α-MSH for 72 h. Overall melanin synthesis was estimated by measuring the absorbance of each well (cells plus medium, without cell lysis) at 400 nm using a Spectrostar Nano microplate reader (BMG LABTECH GmbH, Ortenberg, Germany).

B16-F10 cells = test: Melanin content assay (extracellular and intracellular); format: cell-based, murine; conditions: K8 1–10 µM, 100 nM α-MSH
Protocol: The intracellular melanin retained in cells and extracellular melanin secreted from cells were separately determined. B16-F10 cells were plated in 6-well plates (1.2 × 10^4 cells per well), cultured for 24 h, treated with a test drug at various concentrations for 60 min, and stimulated with 100 nM α-MSH for 72 h. The conditioned medium was evaluated to determine the extracellular melanin content. Adherent cells were extracted with 10% dimethyl sulfoxide solution containing 1.0 M sodium hydroxide at 60 °C for 60 min, and melanin content in the extract was estimated by measuring the absorbance at 400 nm and normalized to the total protein content of the cells.

[2] = Copper chelating activity assay (pyrocatechol violet); format: physicochemical; conditions: 200 μM test compound, 200 μM copper ions, 200 μM pyrocatechol violet, absorbance 632 nm
Protocol: Copper chelating activity was determined by using pyrocatechol violet (Sigma-Aldrich). […] The reaction mixture containing a potential chelator at varied concentrations, 200 μM CuSO4, and 200 μM pyrocatechol violet was incubated at 25 °C for 20 min, and its absorption spectra were recorded using a Shimadzu UV-1650PC spectrophotometer (Shimadzu Corporation, Kyoto, Japan). Copper chelating activity was evaluated by the change in the absorbance of pyrocatechol violet at 632 nm.

[3] = system: TYR, TYRP1, DCT and MITF protein in B16-F10 cells; test: Western blotting of melanogenic proteins; format: cell-based, murine; conditions: 100 nM α-MSH, 24 h, β-actin loading control
Protocol: Western blotting was performed as previously described. Primary antibodies for TYR (#127217) was purchased from MyBioSource (San Diego, CA, USA). Primary antibodies for TYRP1 (#10443) and β-actin (#47778) were purchased from Santa Cruz Biotechnology (Santa Cruz, CA, USA). Primary antibodies for MITF (#20663) and DCT (#74073) were purchased from Abcam (Cambridge, UK). Anti-rabbit IgG (#2357) and anti-goat IgG (#2020) secondary antibodies were purchased from Santa Cruz Biotechnology. Anti-mouse IgG (#7076) secondary antibody was purchased from Cell Signaling Technology (Danvers, MA, USA). Each antibody was diluted 1 to 1000 in antibody dilution buffer containing 20 mM Tris-Cl (pH 7.5), 200 mM NaCl and 5% skim milk.
After B16-F10 cells were treated with drug and/or α-MSH, whole-cell lysates were prepared using a lysis buffer (pH 7.2) consisting of 10 mM Tris-Cl (pH 7.4), 120 mM NaCl, 25 mM KCl, 2 mM EGTA, 1 mM EDTA, 0.5% Triton X-100 and a protease inhibitor cocktail (Roche, Mannheim, Germany) for foe evaluation of TYR, TYRP1, and DCT. For MITF extraction, cells were extracted with RIPA buffer consisting of 25 mM Tris-HCl (pH 7.6), 150 mM NaCl, 1% NP-40, 1% sodium deoxycholate, 0.1% SDS and protease inhibitor cocktail. Proteins were denatured in the Laemmli sample buffer by heating at 95 °C for 5 min and separated by 7.5% SDS-PAGE gel. Proteins were transferred to a polyvinylidene difluoride membrane (Amersham Pharmacia, Little Chalfont, UK). The membrane was incubated with a primary antibody solution at 4 °C overnight, followed by incubation with a solution of a secondary antibody conjugated to horseradish peroxidase at room temperature for 1 h. The target protein bands were detected by a chemiluminescence method using a picoEPD Western Reagent kit (ELPIS-Biotech, Daejeon, Korea). The blots were analyzed using the NIH Image J program.

murine TYR = target: T1, murine TYR (Mus musculus, UniProt P11344); test: In vitro TYR catalytic activity assay, lysate of α-MSH-stimulated B16F10 cells; format: biochemical
T1 construct: One is the protein extract of B16F10 cells stimulated by α-MSH and thus expresses a high amount of TYR; endogenous in cells; host or cells: B16F10 murine melanoma cells stimulated with α-MSH for 24 h; Triton X-100 lysate supernatant
T1 sequence (P11344 19-533): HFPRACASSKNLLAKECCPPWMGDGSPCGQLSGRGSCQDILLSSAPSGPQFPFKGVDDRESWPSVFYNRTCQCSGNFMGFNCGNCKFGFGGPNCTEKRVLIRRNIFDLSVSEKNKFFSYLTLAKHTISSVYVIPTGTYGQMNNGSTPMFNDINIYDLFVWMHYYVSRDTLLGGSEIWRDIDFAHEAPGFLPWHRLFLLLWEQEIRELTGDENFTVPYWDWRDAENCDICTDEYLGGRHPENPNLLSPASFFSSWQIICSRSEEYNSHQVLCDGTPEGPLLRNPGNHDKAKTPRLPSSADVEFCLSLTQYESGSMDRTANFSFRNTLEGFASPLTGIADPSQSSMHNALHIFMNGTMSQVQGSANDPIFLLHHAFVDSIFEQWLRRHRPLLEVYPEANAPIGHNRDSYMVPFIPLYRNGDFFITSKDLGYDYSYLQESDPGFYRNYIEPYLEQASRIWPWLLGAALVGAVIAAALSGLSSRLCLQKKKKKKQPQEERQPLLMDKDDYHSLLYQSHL
Protocol: as §1

IC50 (TYR): 1100 to 1500 nM
IC50 (murine TYR; B16F10 cell-free extract, L-tyrosine plus L-DOPA): 1500 nM
inhibition type (Lineweaver–Burk plots) (murine TYR; murine TYR, varying substrate concentrations): competitive type of inhibition
SMILES: O=C(NO)c1ccc(CC(=O)N(CCO)c2ccccc2)cc1 [K8, 4-((hydroxyamino)carbonyl)-N-(2-hydroxyethyl)-N-phenyl-benzeneacetamide]
relative melanin synthesis (OD 400 nm) ([1]; drug 1.0 μM): markedly inhibited cellular melanin synthesis
melanin synthesis (OD 400) ([1]; drug at varied concentrations): attenuated by both drugs in a dose-dependent manner; also recorded: suppressed almost all melanin synthesis
intracellular melanin content, normalized for total cellular protein (B16-F10 cells; cell extracts): suppressed by K8 in a dose-dependent manner
extracellular melanin content, normalized for total cellular protein (B16-F10 cells; conditioned medium): suppressed by K8 in a dose-dependent manner
copper ions chelated [2]: 27%
DCT protein level [3]: did not significantly attenuate the increase
MITF protein expression [3]: not significantly affected
TRP1 (TYRP1) protein level [3]: did not significantly attenuate the increase
TYR protein level [3]: did not significantly attenuate the increase
